Source: ChEMBL document CHEMBL3045418, “Design, synthesis and antidepressant activity evaluation 2-hydroxy-4,6-diisoprenyloxychalcone derivatives” (2013)

Experiments:
Format in all cases: functional
Conditions in all cases: route intraperitoneal
[1] = test system: Mus musculus; assay: Increase in yohombine-induced mortality in Kunming Mus musculus (mouse) at 30 mg/kg, ip administered for 1 hr prior to yohombine challenge measured after 24 hr (reference value: 20%)
[2] = test system: Mus musculus; assay: Antidepressant activity in Kunming Mus musculus (mouse) assessed as immobility time at 10 mg/kg, ip administered 30 min prior to testing measured after 2 to 6 min by forced swimming test (reference value: 116.7 +/- 12.3 secs)
[3] = test system: Mus musculus; assay: Antidepressant activity in Kunming Mus musculus (mouse) assessed as immobility time at 10 mg/kg, ip administered 30 min prior to testing measured after 2 to 6 min by tail suspension test (reference value: 130.5 +/- 9.6 secs)

CN(C)CCCN1c2ccccc2CCc2ccc(Cl)cc21 [CLOMIPRAMINE]
mortality at 30 mg/kg [1]: 80%

CNCCC(Oc1ccc(C(F)(F)F)cc1)c1ccccc1 (stereo not drawn) [FLUOXETINE]
Time [2]: 68.6 s
Time [3]: 75.6 s
